Here are results for four compounds from patent publication US8062651B1, “Attractant pheromone for the male pink hibiscus mealybug, Maconellicoccus hirsutus (Green) (Homoptera: Pseudococcidae)” (The United States of America as represented by the …, priority 2004, dated 2011).

Experiment [1] deals with male M. hirsutus antennae. The note with it: alcoholic moieties found in volatile extracts; Zhang et al. 2004; cited from earlier work.
The test system of a further experiment is male M. hirsutus. Description: Field bioassay: sticky traps baited with rubber septa lures. Particulars: (R)-lavandulol and (R)-maconelliol together, equal amount to ester, 1 and 10-μg doses, 1:5. Type of experiment: in vivo, Maconellicoccus hirsutus. The method, then: Field Bioassays: Gray halo-butyl rubber septa (5 mm, West Pharmaceutical Services, Kearney, Nebr.) loaded with 1 μg of RS, SR, RR, and SS binary diastereoisomeric mixtures of two candidate pheromone compounds placed on white sticky cards (Pherocon V traps, Trécé, Salinas, Calif.) were used for the field trails in Florida. Treatments were arranged in a randomized complete block design with nine replicates and about ˜1 m between traps within replicates. The cards were attached to the top of metal rods and placed one foot above hibiscus plants in a hedgerow. Cards were collected, put separately in transparent plastic bags, and brought back to the laboratory to count the trapped male PHM under a microscope. Comparisons were made between candidate synthetic mixtures and a blank control trap.
Field bioassays: Gray halo-butyl rubber septa (5 mm, West Pharmaceutical Services, Kearney, Nebr.) were soxhlet extracted with acetone for 48 hr and dried in a fume hood before use. The cleaned septa were loaded with the desired rates of candidate pheromone components in ˜40 μl of hexane solution, and used for field tests. The same amount of hexane was loaded on septa for the blank controls. […]

Experiment [2] deals with male M. hirsutus antennae. Description: Coupled GC-EAD of male antennae. The note with it: GC-EAD of female airborne extracts. Further details: species or system Maconellicoccus hirsutus. The method, then:
Analytical Methods: The coupled gas chromatographic-electroantennographic detection (GC-EAD) system used was as previously described (Zhang, A., et al., J. Chem. Ecol., 23: […] (1997); Zhang, A., et al., J. Chem. Ecol., 25: 1221-1232 (1999); Zhang, A., and S. Polavarapu, J. Chem. Ecol., 29: 2153-2164 (2003)). A HP 6890 GC equipped with a 60 m×0.25-mm ID, 0.25-μm film-thickness DB-WAXETR (J&W Scientific Inc., Folsom, Calif.) capillary column in the splitless mode with hydrogen (1.4 ml/min) as carrier was used for analysis. The column temperature program was hold at 80° C. for 2 min, then heated to 250° C. at 15° C./min and held for 15 min. Electron impact mass spectrometry (EI mass) was conducted on a HP 6890 GC coupled to a HP 5973 Mass Selective Detector using an a 60 m×0.25-mm ID, 0.25-μm film-thickness DB-WAXETR capillary column at 50° C. for 2 min, then programmed to 230° C. at 15° C./min and held for 15 min or a 30 m×0.25-mm ID, 0.25-μm film-thickness DB-1 capillary column (50° C. for 2 min, then programmed to 300° C. at 15° C./min and held for 15 min) with helium as carrier gas. […] GC-Fourier transform infrared (FTIR) spectra were recorded on a HP GC coupled to a Bio-Rad IRD II infrared detector using a 60 m DB-WAXETR capillary column with conditions as described as above. […] NMR spectra were recorded in C6D6 solution on a Bruker QE Plus spectrometer at 300 MHz for ^1H. […]

Each structure is given as a SMILES string.

As for `C=C(C)[C@H](CO)CC=C(C)C` [(R)-lavandulol, (R)-(−)-lavandulol, reference compound], the antennal activity entry in experiment [1] is recorded as “did not elicited any antennal activity”. Also, the “effect on attraction to the RS isomers” value in the experiment with male M. hirsutus is given as “significantly reduced attraction”.

Regarding `CC(C)=C1C[C@@H](CO)C1(C)C` [(R)-maconelliol, [(R)-(−)-2,2-Dimethyl-3-(1-methylethylidene)cyclobutyl]methanol], the antennal activity result in experiment [1] is recorded as “did not elicited any antennal activity”. In addition, the “effect on attraction to the RS isomers” value in the experiment with male M. hirsutus was “significantly reduced attraction”.

Turning to `C=C(C)[C@@H](CC=C(C)C)COC(=O)[C@@H](C)CC` [compound 1, (R)-2-Isopropenyl-5-methylhex-4-enyl (S)-2-methylbutanoate], the “EAD response of male M. hirsutus antennae” value in experiment [2] was “consistently responded”.

As for `CC[C@H](C)C(=O)OC[C@@H]1CC(=C(C)C)C1(C)C` [compound 2, [(R)-2,2-Dimethyl-3-(1-methylethylidene)cyclobutyl]methyl (S)-2-methylbutanoate], the “EAD response of male M. hirsutus antennae” value in experiment [2] is on record as “consistently responded”.
